One series concerns the target T1, 5-HT-IC receptor (Homo sapiens, UniProt P28335).
T1 sequence (P28335 33-458): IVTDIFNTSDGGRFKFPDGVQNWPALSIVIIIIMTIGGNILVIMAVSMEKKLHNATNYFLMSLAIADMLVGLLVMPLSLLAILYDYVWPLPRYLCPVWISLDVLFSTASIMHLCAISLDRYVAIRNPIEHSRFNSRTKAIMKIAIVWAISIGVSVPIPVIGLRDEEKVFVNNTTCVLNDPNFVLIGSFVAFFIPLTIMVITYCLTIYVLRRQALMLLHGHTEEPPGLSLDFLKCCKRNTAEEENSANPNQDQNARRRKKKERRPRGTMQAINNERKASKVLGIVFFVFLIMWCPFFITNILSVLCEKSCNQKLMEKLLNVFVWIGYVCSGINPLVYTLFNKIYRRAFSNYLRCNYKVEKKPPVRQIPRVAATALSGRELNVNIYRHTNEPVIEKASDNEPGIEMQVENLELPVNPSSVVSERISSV
Description: Activity at the 5-HT-IC receptor. The class given is binding. An excerpt: (§1) In addition, the compound of formula I and of formula II also show good activity in in vitro binding assays involving binding to neural receptors. […] The compounds are also active at the 5-HT-IC receptor.

The next series has as its target T2, 5-HT-2 receptor (Rattus norvegicus, UniProt P14842).
T2 construct: from tissue; host or cells: rat frontal cortex
Description: Displacement of H-spiperone from binding sites in the rat frontal cortex.
Description: as §1

The test system of series [1] is rats. The series can be described thus: Conditioned avoidance response in rats. The format is in vivo. Particulars: Rattus norvegicus, read-out: ED50, inhibition of conditioned avoidance response.
The subject of series [2] is rats. The series can be described thus: Catalepsy induction in rats. The format is in vivo. The following applies: at the low dose inhibiting conditioned avoidance response.
Another series deals with dopamine D-2 receptor (Homo sapiens, UniProt P14416). Description: 3H-spiperone binding assay.
Description: as §1

T2 sequence (P14842 whole entry): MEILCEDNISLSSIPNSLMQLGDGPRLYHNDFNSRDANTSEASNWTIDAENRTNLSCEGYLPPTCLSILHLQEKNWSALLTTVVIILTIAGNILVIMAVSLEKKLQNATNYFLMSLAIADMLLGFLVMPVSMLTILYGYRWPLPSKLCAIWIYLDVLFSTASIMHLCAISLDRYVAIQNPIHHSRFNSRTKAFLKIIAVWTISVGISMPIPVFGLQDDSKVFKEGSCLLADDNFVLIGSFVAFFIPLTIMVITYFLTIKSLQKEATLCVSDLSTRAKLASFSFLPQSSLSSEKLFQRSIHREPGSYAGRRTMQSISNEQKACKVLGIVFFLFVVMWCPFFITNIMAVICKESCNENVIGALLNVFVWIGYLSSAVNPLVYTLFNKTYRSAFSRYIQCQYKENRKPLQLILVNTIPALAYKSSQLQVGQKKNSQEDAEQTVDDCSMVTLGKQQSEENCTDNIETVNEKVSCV
dopamine D-2 receptor, sequence (P14416 whole entry): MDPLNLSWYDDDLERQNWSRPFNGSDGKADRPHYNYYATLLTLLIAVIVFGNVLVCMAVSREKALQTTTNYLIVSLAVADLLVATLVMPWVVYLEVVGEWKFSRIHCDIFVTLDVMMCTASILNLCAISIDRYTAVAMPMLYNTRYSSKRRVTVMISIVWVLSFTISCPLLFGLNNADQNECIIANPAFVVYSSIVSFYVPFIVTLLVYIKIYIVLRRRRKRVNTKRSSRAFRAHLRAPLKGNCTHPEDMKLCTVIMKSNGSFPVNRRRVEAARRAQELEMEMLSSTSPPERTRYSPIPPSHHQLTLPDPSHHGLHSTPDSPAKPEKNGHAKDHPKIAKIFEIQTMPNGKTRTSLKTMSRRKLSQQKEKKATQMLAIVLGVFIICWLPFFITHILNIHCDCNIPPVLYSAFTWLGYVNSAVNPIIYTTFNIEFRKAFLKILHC

On to `Cc1cc2c(s1)Nc1ccccc1N=C2N1CC[N+](C)(CCl)CC1` [formula I, 2-methyl-4-(4-methyl-4-chloromethyl-1-piperazinyl)-10H-thieno-[2,3-b][1,5]-benzodiazepine], for which the “Activity at the 5-HT-IC receptor” value at 5-HT-IC receptor is “active”. Moreover, the “Concentration displacing H-spiperone at the 5-HT-2 receptor” value at 5-HT-2 receptor is “low nanomolar concentrations”. In the series on rats [1], the ED50 was roughly 5 mg/kg. The Catalepsy entry in the series with rats [2] is on record as “without inducing catalepsy”. At dopamine D-2 receptor, this compound gave an IC50 of less than 1 µM.

In the case of `CC(=O)N1CCN(C2=Nc3ccccc3Nc3sc(C)cc32)CC1` [formula II, 2-methyl-4-(4-acetyl-1-piperazinyl)-10H-thieno-[2,3-b][1,5]-benzodiazepine], at 5-HT-IC receptor, the “Activity at the 5-HT-IC receptor” value is on record as “active”. The “Concentration displacing H-spiperone at the 5-HT-2 receptor” value at 5-HT-2 receptor is on record as “low nanomolar concentrations”. The ED50 in the series on rats [1] was roughly 5 mg/kg. In the series with rats [2], the Catalepsy result is reported as “without inducing catalepsy”. Moreover, the half-maximal inhibitory concentration (IC50) at dopamine D-2 receptor was less than 1 µM.

For the origin of these results see patent US20090221560A1, “Pharmaceutical Formulation” (priority 2005, published 2009).
